{"source": "paper PMC7023466", "about": "“Novel N,N′-Disubstituted Acylselenoureas as Potential Antioxidant and Cytotoxic Agents” (Antioxidants, 2020)", "key": {"[1]": {"experiment": "ABTS radical scavenging assay", "settings": "0.003 mg/mL", "description": "ABTS radical scavenging was assayed with a colorimetric test as well [59]. Briefly, ABTS was dissolved in deionized water at 1 mg/mL and oxidized to ABTS^+• with potassium persulfate (2.45 mM final concentration). This reaction mixture was kept overnight at room temperature in the dark. After radical generation, ABTS^+• was diluted with 50% ethanol until an absorbance of 0.70 ± 0.02 at 734 nm for measurements. The tested compounds were solved in absolute ethanol at a concentration of 1 mg/mL, and 20 µL of this solution were added to 180 µL of the diluted ABTS^+•. After 6 min of incubation, the absorbance at 734 nm was recorded using 50% ethanol as the blank. Trolox and Asc were used as the positive controls. All of the determinations were carried out in triplicate. The same time intervals as in the DPPH assay were also measured. The ability to scavenge ABTS^+• was calculated using the following formula:(2) % ABTS radical scavenging=Acontrol−Asample/Acontrol × 100 where Acontrol refers to the absorbance of the negative control and Asample refers to the absorbance of the tested compounds. The results are expressed as percentage of ABTS radical scavenging ± SD."}, "H1299 cells": {"system": "H1299 cells", "experiment": "MTT cell viability assay, H1299", "assay_type": "cell-based", "settings": "Homo sapiens, NCI-H1299, lung cancer cells, 48 h", "description": "(§1) The cell viability assay of each compound was carried out using the MTT assay. Each compound was dissolved in dimethyl sulfoxide (DMSO) at a concentration of 0.01 M. Serial dilutions were prepared with a non-supplemented culture medium. The effect of each compound on the cell viability was determined at two different concentrations (10 and 50 µM) in MCF-7, HTB-54, and HT-29 cells. In addition, the selected compounds were tested at six different concentrations between 0.1–100 µM in MCF-7, T47D, H1299, HTB-54, and 184B5 cells.\n(§2) Briefly, 1 × 10^4 tumor cells/well or 2 × 10^4 non-tumorigenic cells/well were grown in 96-well plates for 12 h. Then, these cells were incubated with either DMSO (control) or a different concentration of each of the tested compounds for 48 h. Three hours before the termination point, 20 µL of MTT were added to measure the cellular viability. The resultant formazan crystals were dissolved in 50 µL of DMSO, and the absorbance was measured at 570 and 630 nm. The results are expressed as IC50, the half maximal inhibitory concentration. This value was calculated using OriginPro 8.5.1. software (OriginLab, Northampton, MA, USA) by nonlinear curve fitting. Furthermore, the selectivity index (SI) was calculated as the ratio of the IC50 values determined for the non-malignant and the tumor cells (IC50 (184B5)/IC50 (MCF-7). The data were obtained from at least three independent experiments performed in quadruplicates."}, "HT-29 cells [2]": {"system": "HT-29 cells", "experiment": "MTT cell viability assay, HT-29", "assay_type": "cell-based", "settings": "Homo sapiens, 48 h, read-out: Growth (%) HT-29", "how_it_was_run": "(§3)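 Cells were treated with compound for 48 h, either at 10 and 50 µM or at six concentrations from 0.1 to 100 µM. Viability was read by MTT at 570/630 nm, and IC50 was obtained by nonlinear fit from at least three experiments. SI is IC50(184B5 non-malignant)/IC50(MCF-7).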"}, "MCF-7 cells": {"system": "MCF-7 cells", "experiment": "MTT cell viability assay, MCF-7", "assay_type": "cell-based, human", "settings": "for reduction of cell growth: in at least one of the cell lines (MCF-7, HT-29, HTB-54); for activity at 10 µM / activity at 50 µM: read-out: Growth (%) MCF-7", "how_it_was_run": "as §3"}, "184B5 cells": {"system": "184B5 cells", "experiment": "MTT cell viability assay, non-malignant 184B5", "assay_type": "cell-based", "settings": "Homo sapiens, non-malignant breast cells, 48 h", "description": "as §1, §2"}, "T47D cells": {"system": "T47D cells", "experiment": "MTT cell viability assay, T47D", "assay_type": "cell-based", "settings": "Homo sapiens, breast cancer cells, 48 h", "description": "as §1, §2"}, "HTB-54 cells": {"system": "HTB-54 cells", "experiment": "MTT cell viability assay, HTB-54", "assay_type": "cell-based", "settings": "Homo sapiens, 48 h; for activity at 10 µM / activity at 50 µM: read-out: Growth (%) HTB-54", "how_it_was_run": "as §3"}, "HT-29 cells [3]": {"system": "HT-29 cells", "experiment": "Protective effects against H2O2-induced oxidative stress (MTT)", "assay_type": "cell-based, human", "settings": "for increase fold of cell survival: compound 0.03 mg/mL, 12 h", "description": "An H2O2-induced oxidative damage model on HT-29 cells was established, and the cell viability was evaluated by MTT assay, as a measurement of the antioxidant activity of the compounds. Asc was used as a positive control. Briefly, 1 × 10^4 HT-29 cells per well were grown in 96-well plates. After 12 h of incubation, DMSO; 4b, 8c, 9c, and 10b compounds; or Asc were added to each well at concentrations of 0.03 and 0.003 mg/mL, and incubated for 1 h. Subsequently, H2O2 (200, 250, and 300 µM) was added and the cells were incubated for 12 h to induce cell damage. An MTT assay was performed as mentioned previously. For each treatment, the mean cell viability was calculated from three independent experiments. The DMSO-treated controls were assigned with a cell viability value of 100% (Vcontrol). The results are expressed as the increase fold of cell survival, as follows:(3) Increase fold of cell survival = (Vsample−Vsample + H2O2)/VControl−VH2O2 where Vsample refers to the viability of the cells only treated with the corresponding compound, VH2O2 refers to the viability of the HT-29 cells exposed to H2O2, and Vsample + H2O2 refers to the cell survival of each treatment with a compound and H2O2. The data are expressed as increase fold of cell survival ± standard error of the mean (SEM) in at least three independent experiments performed in quadruplicates."}, "[4]": {"design": "method as in doi:10.1007/s11172-013-0228-5", "settings": "conditions not tested by the authors; cited from earlier work"}, "[5]": {"settings": "Homo sapiens, MCF7, 10 μM, 48 h"}, "[6]": {"settings": "Homo sapiens, MCF7, 50 μM, 48 h"}}, "note": "Read-outs that look alike come from different tables or passages of the source."}
{"smiles": "Cc1ccc(NC(=[Se])NC(=O)c2ccc3c(c2)OCO3)cc1", "note": "[Compound 10b]", "values": [{"measurement": "ABTS radical scavenging activity compared with controls", "setting": "[1]", "value": "potent radical scavenging activity similar to Trolox"}, {"measurement": "IC50", "setting": "H1299 cells", "value": "5.9 ± 1.4", "unit": "µM"}, {"measurement": "activity at 10 µM", "setting": "HT-29 cells [2]", "value": 63.3, "unit": "%"}, {"measurement": "activity at 50 µM", "setting": "HT-29 cells [2]", "value": 43.9, "unit": "%"}, {"measurement": "reduction of cell growth", "setting": "MCF-7 cells; 10 μM, 48 h", "value": "at least 45%"}, {"measurement": "reduction of cell growth", "setting": "MCF-7 cells; 50 μM, 48 h", "value": "more than 85%"}, {"measurement": "activity at 10 µM", "setting": "MCF-7 cells; [5]", "value": 63, "unit": "%"}, {"measurement": "activity at 50 µM", "setting": "MCF-7 cells; [6]", "value": 7.4, "unit": "%"}, {"measurement": "IC50", "setting": "MCF-7 cells; Homo sapiens, MCF7, breast cancer cells, 48 h, MTT, read-out: IC50 MCF-7", "value": "7.3 ± 0.3", "unit": "µM"}, {"measurement": "SI (selectivity index)", "setting": "MCF-7 cells; IC50 (184B5)/IC50 (MCF-7)", "value": ">13.6"}, {"measurement": "IC50", "setting": "184B5 cells", "value": "> 100", "unit": "µM"}, {"measurement": "IC50", "setting": "T47D cells", "value": "11.9 ± 1", "unit": "µM"}, {"measurement": "activity at 10 µM", "setting": "HTB-54 cells; HTB-54", "value": 16.4, "unit": "%"}, {"measurement": "activity at 50 µM", "setting": "HTB-54 cells; HTB-54", "value": 12, "unit": "%"}, {"measurement": "IC50", "setting": "HTB-54 cells; HTB-54, lung cancer cells, MTT, read-out: IC50 HTB-54", "value": "1.5 ± 1.8", "unit": "µM"}, {"measurement": "IC50", "setting": "HTB-54 cells; HTB-54 and H1299 pooled, read-out: IC50 on both lung cancer cells", "value": "1.5 to 7.3", "unit": "µM"}]}
{"smiles": "COc1ccc(NC(=[Se])NC(=O)c2cc3ccccc3s2)cc1", "note": "[Compound 9c]", "values": [{"measurement": "increase fold of cell survival", "setting": "HT-29 cells [3]; H2O2 200 µM", "value": "≤ 0.8", "unit": "fold"}, {"measurement": "increase fold of cell survival", "setting": "HT-29 cells [3]; H2O2 250 µM", "value": "≤ 1.7", "unit": "fold"}, {"measurement": "increase fold of cell survival", "setting": "HT-29 cells [3]; H2O2 300 µM", "value": "up to 3.6 fold"}, {"measurement": "activity at 10 µM", "setting": "HT-29 cells [2]", "value": 47.9, "unit": "%"}, {"measurement": "activity at 50 µM", "setting": "HT-29 cells [2]", "value": 37.3, "unit": "%"}, {"measurement": "activity at 10 µM", "setting": "MCF-7 cells; [5]", "value": 63, "unit": "%"}, {"measurement": "activity at 50 µM", "setting": "MCF-7 cells; [6]", "value": 49.2, "unit": "%"}, {"measurement": "activity at 10 µM", "setting": "HTB-54 cells; HTB-54", "value": 64.2, "unit": "%"}, {"measurement": "activity at 50 µM", "setting": "HTB-54 cells; HTB-54", "value": 7.1, "unit": "%"}]}
{"smiles": "O=C1O[C@H]([C@@H](O)CO)C(O)=C1O", "note": "[Asc, Ascorbic acid, reference compound]", "values": [{"measurement": "protective effect against H2O2-induced oxidative stress", "setting": "HT-29 cells [3]; 0.003 mg/mL", "value": "disappeared"}]}
{"smiles": "O=[Se]([O-])[O-].[Na+].[Na+]", "note": "[sodium selenite]", "values": [{"measurement": "DPPH radical scavenging activity", "setting": "[4]", "value": "only showed DPPH radical scavenging activity at pH 3.0"}]}
